Laboratory results from PMC11079024, “Identification of a family of species-selective complex I inhibitors as potential anthelmintics” (Nature Communications, 2024).

These molecules were tested on L1 wild-type C. elegans (assay: microbe, parasite or virus in culture). Details: Caenorhabditis elegans, read-out: C. elegans KCN Survival Assay LC50, estimated from fitted dose-response curves; mean of at least two biological replicates.

Compound	LC50 [µM]
c1ccc(-c2noc(CCCCc3nc4ccccc4[nH]3)n2)cc1 [STK633241]	19.4
C(=C\c1nc2ccccc2[nH]1)/c1ccccc1 [STK871091]	15
CCc1ccc(OC(C)c2nc3ccccc3[nH]2)cc1 (stereo not shown) [STK914290]	22.4
CCc1ccc(CNc2nc3ccccc3n2C)cc1 [STK498539]	30.5
c1ccc2[nH]c(CSc3nc4ccccc4o3)nc2c1 [Compound 5668941]	26.8

What follows are molecules tested against C. elegans (N2) complex I (NADH:ubiquinone oxidoreductase) (Caenorhabditis elegans, UniProt P24887+Q93873+Q94360) (assay: biochemical). Details: in vitro complex I dose response on C. elegans mitochondria; average of at least two biological replicates; fit in R (DRC); read-out: IC50 C. elegans complex I.
Format: biochemical
Method: Mitochondria were isolated from the following free-living nematode strains: C. elegans—N2, CB3474, ECA882, ECA917, ECA1075, ECA1080; C. briggsae—AF16; P. pacificus—PS312; and P. hermaphrodita—B178. With the exception of the P. hermaphrodita strain B178, adult worms of each strain were grown in bulk through liquid culture to obtain mitochondria in sufficient quantities. Due to poor growth in liquid media, mixed stage populations of P. hermaphrodita were washed off and collected from NGM plates seeded with OP50. The isolation of mitochondria from all free-living nematode strains followed the protocol previously outlined in Burns et al.[24]. In brief, a 1 L saturated culture of E. coli HB101 was concentrated 20-fold in 50 mL complete S-medium. ~500,000 L1 worms synchronized from an embryo preparation performed the day prior were added to the S-media/HB101 suspension and grown to adulthood over the course of 3.5 days at 20 °C with shaking at 165 rpm. Following growth, worms were collected in 10 ×15 mL conical tubes and washed 7 times in M9 buffer. Worm suspensions were then combined into a single 15 mL conical tube and diluted to a final volume of 15 mL with M9 buffer. 1 mL aliquots of worm suspension were then distributed to 15 × 1.5 mL screw-cap microcentrifuge tubes and were pelleted at 500 g for 1 min. Excess M9 was aspirated without disturbing the worm pellet. 600 μL ice-cold isolate buffer A (250 mM sucrose, 10 mM Tris (pH 7.5), 1 mM EDTA, 1 mM PMSF (freshly prepared)) and 300 μL cold glass beads were then added to each tube. Tubes were incubated on ice for 10 min, and the worms were then lysed by bead beating (6 x 30 s, with 1 min cooling intervals). Tubes containing worm lysate were centrifuged at 1,000 g for 10 min at 4 °C and the supernatant was transferred to 15 new microcentrifuge tubes on ice. The tubes were centrifuged a second time at 1,000 g for 10 min at 4 °C and the supernatant was once again transferred to 15 new microcentrifuge tubes on ice. These tubes were then centrifuged at 16,000 g for 10 min at 4 °C. The resulting mitochondrial pellet was washed twice by re-suspension in 300 μL of ice-cold isolate buffer B (250 mM sucrose, 10 mM Tris (pH 7.5), 1 mM EDTA). Following the final wash, isolation buffer was aspirated from each tube and the pellets were flash-frozen in ethanol/dry ice and stored at −80 °C until needed.
(§1) The enzymatic activities of individual ETC complexes (I-IV) were assessed spectrophotometrically in isolated mitochondria using a Varioskan LUX Multimode plate reader (ThermoFisher Scientific). Mitochondrial pellets previously isolated were thawed on ice and resuspended in ice-cold isolation buffer (250 mM sucrose, 10 mM Tris (pH 7.5), 1 mM EDTA). The BCA assay (Walker, 1994) was used to quantify the protein concentration of mitochondria suspensions; solutions were diluted to a concentration of 0.2 mg/mL for use in all assays. For the complex I assay, mitochondria pellets were freeze-thawed on ice three times to increase enzyme accessibility. […] 20 μL mitochondria suspension was then added/mixed with a pipette to initiate the reaction. Immediately following the addition of mitochondria, absorbance was measured (complex I and II: 600 nm; complex III and IV: 550 nm) in 30 s intervals over 15 min. Enzymatic activity was determined in each reaction by plotting absorbance versus time and calculating the slope of the curve during the initial linear phase of the reaction. […] Percent activity of each complex was calculated by dividing the enzyme-specific activity of each well by the enzyme-specific activity of the corresponding solvent controls.
(§2) Chemical solutions were prepared in complex I assay buffer composed of 25 mM KPi buffer (pH 7.5), 3 mg/mL bovine serum albumin (BSA), 80 μM NADH, 60 μM decylubiquinone, 160 μM DCIP, 2 μM antimycin A and 2 mM KCN.
For preliminary screens of hit compounds, compounds were screened at 100 μM; data are the average of at least three biological replicates.

Chain of C. elegans (N2) complex I (NADH:ubiquinone oxidoreductase) (Q94360 17-199): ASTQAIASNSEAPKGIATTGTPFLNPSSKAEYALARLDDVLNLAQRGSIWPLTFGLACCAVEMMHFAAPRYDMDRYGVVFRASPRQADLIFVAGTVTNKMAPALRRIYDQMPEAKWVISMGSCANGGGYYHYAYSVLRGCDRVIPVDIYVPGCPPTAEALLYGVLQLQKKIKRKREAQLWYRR
Chain of C. elegans (N2) complex I (NADH:ubiquinone oxidoreductase) (P24887 whole entry): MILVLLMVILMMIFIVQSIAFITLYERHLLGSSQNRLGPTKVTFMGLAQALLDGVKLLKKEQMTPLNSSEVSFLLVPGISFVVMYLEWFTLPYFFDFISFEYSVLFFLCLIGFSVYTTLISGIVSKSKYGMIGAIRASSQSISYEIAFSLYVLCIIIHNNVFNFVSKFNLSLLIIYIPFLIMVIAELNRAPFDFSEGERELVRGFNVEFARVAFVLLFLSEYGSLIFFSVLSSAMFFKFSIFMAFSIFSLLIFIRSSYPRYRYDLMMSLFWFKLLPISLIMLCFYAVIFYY
Chain of C. elegans (N2) complex I (NADH:ubiquinone oxidoreductase) (Q93873 31-482): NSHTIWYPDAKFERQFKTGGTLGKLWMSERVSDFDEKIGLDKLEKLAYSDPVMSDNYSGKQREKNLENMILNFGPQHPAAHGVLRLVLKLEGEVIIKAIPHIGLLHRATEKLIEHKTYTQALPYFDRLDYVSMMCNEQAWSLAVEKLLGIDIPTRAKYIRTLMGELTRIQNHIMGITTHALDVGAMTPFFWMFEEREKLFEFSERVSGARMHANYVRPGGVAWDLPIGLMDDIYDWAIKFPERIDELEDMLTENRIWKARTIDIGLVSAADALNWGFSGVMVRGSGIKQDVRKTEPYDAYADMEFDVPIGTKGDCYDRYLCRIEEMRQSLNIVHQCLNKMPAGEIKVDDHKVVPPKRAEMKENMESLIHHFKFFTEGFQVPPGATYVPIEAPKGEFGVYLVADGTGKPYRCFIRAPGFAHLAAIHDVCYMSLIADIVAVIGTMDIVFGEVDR

Compound	IC50 [µM]
c1ccc(-c2noc(CCCCc3nc4ccccc4[nH]3)n2)cc1 [STK633241]	20.6
CCc1ccc(OC(C)c2nc3ccccc3[nH]2)cc1 (stereo not shown) [STK914290]	71.3
CCc1ccc(CNc2nc3ccccc3n2C)cc1 [STK498539]	40.8
c1ccc2[nH]c(CSc3nc4ccccc4o3)nc2c1 [Compound 5668941]	19.6

Same assay, conditions: log10 of IC50 in µM; C. elegans mitochondria

Compound	Log IC50 C. elegans complex I [µM]
c1ccc(-c2noc(CCCCc3nc4ccccc4[nH]3)n2)cc1 [STK633241]	1.31
CCc1ccc(OC(C)c2nc3ccccc3[nH]2)cc1 (stereo not shown) [STK914290]	1.85
CCc1ccc(CNc2nc3ccccc3n2C)cc1 [STK498539]	1.61
c1ccc2[nH]c(CSc3nc4ccccc4o3)nc2c1 [Compound 5668941]	1.29

Same assay, conditions: wild-type C. elegans mitochondria; estimated from fitted dose-response curves; read-out: C. elegans Complex I IC50

Compound	IC50 [µM]
C(=C\c1nc2ccccc2[nH]1)/c1ccccc1 [STK871091]	> 75
c1ccc2[nH]c(CSc3nc4ccccc4o3)nc2c1 [Compound 5668941]	19.6

Same assay, conditions: wild-type C. elegans mitochondria; read-out: C. elegans Complex I IC50

Compound	IC50 [µM]
c1ccc(-c2noc(CCCCc3nc4ccccc4[nH]3)n2)cc1 [STK633241]	20.6
CCc1ccc(OC(C)c2nc3ccccc3[nH]2)cc1 (stereo not shown) [STK914290]	71.3
CCc1ccc(CNc2nc3ccccc3n2C)cc1 [STK498539]	40.8

What follows are molecules tested against B. taurus (heart) complex I (Bos taurus, UniProt P03887+P17694+P42026) (assay: biochemical). Details: B. taurus heart mitochondria; read-out: B. taurus Complex I IC50.
Format: biochemical
Method: Six 8–10-week-old C57Bl/6 female mice (Charles River) were freshly dissected, and their livers and hearts collected into separate 1.5 mL microcentrifuge tubes. Organs were flash-frozen in liquid nitrogen and stored at −80 °C prior to use. The heart of a freshly slaughtered adult cow was obtained from a local abattoir (Peel Sausage Inc.), chopped into ~1-inch cubes and collected into 50 mL falcon tubes. Falcon tubes were flash-frozen in a container of dry ice and stored at −80 °C prior to use. Isolation of mitochondria from all mammalian tissue was carried out following the protocol described above. However, due to size, the initial homogenization of tissue was performed by 15 strokes in a dounce homogenizer (mouse heart) or with several 5 s pulses in small Nutribullet blender (cow heart). All mouse protocols for mouse care and dissection were reviewed and approved by the University of Toronto Animal Care Committee, in accordance with the Canadian Council on Animal Care.
as §1, §2
For preliminary screens of hit compounds, compounds were screened at 100 μM; data are the average of at least three biological replicates. The complex I and II activity assays were used for additional dose-response experiments. […] For dose responses of benzimidazole analogs, data represent the average of two biological replicates. For all other dose-responses, data represent the average of at least three biological replicates.

Chain of B. taurus (heart) complex I (P03887 whole entry): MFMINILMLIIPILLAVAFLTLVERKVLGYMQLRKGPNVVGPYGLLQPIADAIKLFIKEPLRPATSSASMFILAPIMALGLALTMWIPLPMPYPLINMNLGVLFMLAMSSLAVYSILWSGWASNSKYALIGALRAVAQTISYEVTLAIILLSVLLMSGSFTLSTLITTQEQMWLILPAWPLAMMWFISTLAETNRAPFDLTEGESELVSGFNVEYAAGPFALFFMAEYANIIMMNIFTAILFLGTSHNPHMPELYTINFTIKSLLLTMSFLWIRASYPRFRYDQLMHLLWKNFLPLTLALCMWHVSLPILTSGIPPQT
Chain of B. taurus (heart) complex I (P17694 34-463): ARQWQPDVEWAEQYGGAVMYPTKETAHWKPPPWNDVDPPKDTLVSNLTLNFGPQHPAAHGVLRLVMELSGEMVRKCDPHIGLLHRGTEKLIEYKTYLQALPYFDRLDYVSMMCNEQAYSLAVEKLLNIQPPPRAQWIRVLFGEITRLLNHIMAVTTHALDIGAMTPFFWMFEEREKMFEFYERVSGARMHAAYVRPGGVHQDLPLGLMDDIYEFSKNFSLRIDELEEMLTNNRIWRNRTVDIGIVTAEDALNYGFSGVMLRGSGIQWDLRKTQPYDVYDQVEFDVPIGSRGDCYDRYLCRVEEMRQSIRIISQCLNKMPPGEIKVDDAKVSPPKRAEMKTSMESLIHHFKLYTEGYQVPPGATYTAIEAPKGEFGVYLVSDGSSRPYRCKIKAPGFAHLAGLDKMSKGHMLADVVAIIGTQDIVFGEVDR
Chain of B. taurus (heart) complex I (P42026 38-216): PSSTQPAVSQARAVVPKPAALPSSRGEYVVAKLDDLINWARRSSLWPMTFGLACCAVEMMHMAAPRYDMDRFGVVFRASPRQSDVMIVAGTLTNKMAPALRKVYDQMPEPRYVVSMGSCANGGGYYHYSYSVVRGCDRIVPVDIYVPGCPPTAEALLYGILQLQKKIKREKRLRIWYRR

Compound	IC50 [µM]
c1ccc(-c2noc(CCCCc3nc4ccccc4[nH]3)n2)cc1 [STK633241]	18.5

Same assay, conditions: log10 of IC50 in µM; B. taurus mitochondria

Compound	Log IC50 B. taurus complex I [µM]
c1ccc(-c2noc(CCCCc3nc4ccccc4[nH]3)n2)cc1 [STK633241]	1.27

The molecules below were run on ben-1 mutant (ECA882) C. elegans (assay: microbe, parasite or virus in culture). Details: Caenorhabditis elegans, read-out: C. elegans (ben-1) Development & Viability Assay LC50.
Method: Liquid development and viability assays were adapted from a previously established chemical screening protocol (Burns et al.)[24]. In brief, a saturated culture of E. coli HB101 was concentrated 2-fold in liquid NGM and 40 μL of this suspension was distributed to each well of a 96-well flat-bottom culture plate. 0.5 μL chemical solution (or DMSO alone) was added to each well (1% DMSO v/v) using either a multi-channel pipette or a pinning tool (V&P Scientific). L1 worms synchronized from an embryo preparation performed the day prior were diluted to a concentration of ~2 worms/μL in M9 buffer; 10 μL worm suspension was then added to each well. Culture plates were sealed with parafilm and placed in a plastic container lined with wet paper towels to prevent evaporation. Containers were then incubated for 6 days at 20 °C with shaking at 165 rpm. Following incubation, 300 μL M9 was added to each well to decrease the turbidity of the HB101-NGM suspension. Single images of each microplate well were then taken on a Nikon Ti Eclipse inverted microscope (Nikon NIS Elements AR). Images were processed using Python scripts to isolate worm-associated pixels from background. Scores of worm development and viability were determined as the sum of worm-associated pixels in each well. Development/viability scores for each well were divided by the development /viability scores for the corresponding DMSO controls, resulting in a relative viability value for each chemical. At least three biological replicates were performed for each dose-response experiment; relative viability values were averaged across replicates. […]
anthelmintics. a. Chemical structures of four commercial benzimidazole anthelmintics (e.g., albendazole, […]
Dose response of four commercial […]
elegans strains: N2, wild type; ECA882, deletion (ben-1); ECA917, F200Y (ben-1); ECA1075, F167Y (ben-1); ECA1080, E198A (ben-1); CB3474, G104D (ben-1). The colour-coded scale denotes the phenotypic outcome of drug treatment (e.g., motility or viability) relative to DMSO controls; white/pale- […]
death and arrested development. c. […]
benzimidazole anthelmintics (blue) were conducted in C. elegans development and viability assays for wild type (N2) and ben-1 mutant (ECA882) C. elegans (see Supplementary Date File 1).
All data used for generation of dose-response curves is the mean of at least three […]
Supplementary Figure 7 (continued). Davie et al.

Compound	LC50 [µM]
c1ccc(-c2noc(CCCCc3nc4ccccc4[nH]3)n2)cc1 [STK633241]	> 1000
C(=C\c1nc2ccccc2[nH]1)/c1ccccc1 [STK871091]	148
CCc1ccc(OC(C)c2nc3ccccc3[nH]2)cc1 (stereo not shown) [STK914290]	227
CCc1ccc(CNc2nc3ccccc3n2C)cc1 [STK498539]	214
c1ccc2[nH]c(CSc3nc4ccccc4o3)nc2c1 [Compound 5668941]	123

Same assay, conditions: Caenorhabditis elegans, read-out: C. elegans ben-1 LC50

Compound	LC50 [µM]
c1ccc(-c2noc(CCCCc3nc4ccccc4[nH]3)n2)cc1 [STK633241]	> 500

Same assay, conditions: Caenorhabditis elegans, read-out: C. elegans ben-1 log10 LC50 (converted)

Compound	LC50 [µM]
c1ccc(-c2noc(CCCCc3nc4ccccc4[nH]3)n2)cc1 [STK633241]	> 500
C(=C\c1nc2ccccc2[nH]1)/c1ccccc1 [STK871091]	148
CCc1ccc(OC(C)c2nc3ccccc3[nH]2)cc1 (stereo not shown) [STK914290]	228
CCc1ccc(CNc2nc3ccccc3n2C)cc1 [STK498539]	214
c1ccc2[nH]c(CSc3nc4ccccc4o3)nc2c1 [Compound 5668941]	123

Each molecule was assayed on L1 wild-type C. elegans (assay: not given). Details: 50 μM compound; […]; hit = relative motility below 0.25 3 hours after removal of KCN.

Compound	Screen "Hit"
c1ccc(-c2noc(CCCCc3nc4ccccc4[nH]3)n2)cc1 [STK633241]	Y (hits were identified as compounds that reduced relative motility below 0.25 (75% reduction))
C(=C\c1nc2ccccc2[nH]1)/c1ccccc1 [STK871091]	Y (hits were identified as compounds that reduced relative motility below 0.25 (75% reduction))
CCc1ccc(OC(C)c2nc3ccccc3[nH]2)cc1 (stereo not shown) [STK914290]	Y (hits were identified as compounds that reduced relative motility below 0.25 (75% reduction))
CCc1ccc(CNc2nc3ccccc3n2C)cc1 [STK498539]	Y (hits were identified as compounds that reduced relative motility below 0.25 (75% reduction))

Same assay, conditions: 50 μM compound; […]; worm motility 3 hours after removal of KCN, relative to DMSO controls; single biological replicate

Compound	Relative Motility
C(=C\c1nc2ccccc2[nH]1)/c1ccccc1 [STK871091]	0.008
CCc1ccc(OC(C)c2nc3ccccc3[nH]2)cc1 (stereo not shown) [STK914290]	0.082
CCc1ccc(CNc2nc3ccccc3n2C)cc1 [STK498539]	0.042

Same assay, conditions: 50 μM; […]; KCN survival assay; hit = relative motility below 0.25

Compound	Screen "Hit"
c1ccc2[nH]c(CSc3nc4ccccc4o3)nc2c1 [Compound 5668941]	Y (hits were identified as compounds that reduced relative motility below 0.25 (75% reduction))

Same assay, conditions: 50 μM; […]; worm motility 3 hours after the removal of KCN (endpoint); relative to DMSO controls; single biological replicate

Compound	Relative Motility
c1ccc2[nH]c(CSc3nc4ccccc4o3)nc2c1 [Compound 5668941]	0.130
